# Data: patent US20250085273A1, “NOVEL RAPID DRUG DISCOVERY FOR SEPSIS AND AGENTS FOR USE AS SEPSIS THERAPY” (priority 2023, published 2025)
# Key:
# [1] = biological target: histamine H1 receptor (Homo sapiens, UniProt P35367); details: read-out: affinity for histamine H1 receptor; cited from earlier work
# [2] = biological target: T1, α1B (Homo sapiens, UniProt P35368); details: read-out: affinity (Ki) α1B; cited from earlier work
# T1 sequence (P35368 1-520): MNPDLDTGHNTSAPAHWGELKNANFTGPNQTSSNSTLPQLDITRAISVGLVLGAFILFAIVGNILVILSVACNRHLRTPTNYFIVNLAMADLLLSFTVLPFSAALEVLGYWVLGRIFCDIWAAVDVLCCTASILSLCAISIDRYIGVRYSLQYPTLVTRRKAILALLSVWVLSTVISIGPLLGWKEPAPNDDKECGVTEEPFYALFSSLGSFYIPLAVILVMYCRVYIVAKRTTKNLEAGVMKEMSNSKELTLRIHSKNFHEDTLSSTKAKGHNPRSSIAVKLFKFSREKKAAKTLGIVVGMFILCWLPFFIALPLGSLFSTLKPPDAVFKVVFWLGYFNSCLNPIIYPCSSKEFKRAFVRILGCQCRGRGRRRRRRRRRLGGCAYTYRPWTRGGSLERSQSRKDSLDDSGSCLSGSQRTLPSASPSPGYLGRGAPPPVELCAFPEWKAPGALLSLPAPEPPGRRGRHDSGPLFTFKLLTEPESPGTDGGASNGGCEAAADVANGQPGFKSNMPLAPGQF
# [3] = biological target: T2, α2C (Homo sapiens, UniProt P18825); details: read-out: affinity (Ki) α2C; cited from earlier work
# T2 sequence (P18825 1-462): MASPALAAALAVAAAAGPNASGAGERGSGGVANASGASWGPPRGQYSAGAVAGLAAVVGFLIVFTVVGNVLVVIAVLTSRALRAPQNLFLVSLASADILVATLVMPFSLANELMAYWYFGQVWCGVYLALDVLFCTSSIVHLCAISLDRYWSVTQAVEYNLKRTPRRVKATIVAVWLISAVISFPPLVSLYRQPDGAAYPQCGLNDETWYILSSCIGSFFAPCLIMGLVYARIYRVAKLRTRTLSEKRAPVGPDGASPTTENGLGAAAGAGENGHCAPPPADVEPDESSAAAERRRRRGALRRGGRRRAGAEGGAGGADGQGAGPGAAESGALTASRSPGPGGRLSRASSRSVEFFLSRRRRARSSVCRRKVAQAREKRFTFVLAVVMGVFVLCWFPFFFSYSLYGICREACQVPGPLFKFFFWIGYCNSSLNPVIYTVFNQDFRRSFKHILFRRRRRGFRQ
# [4] = biological target: D3 (Homo sapiens, UniProt P35462); details: read-out: affinity (Ki) D3; cited from earlier work
# [5] = biological target: T3, α1D (Homo sapiens, UniProt P25100); details: read-out: affinity (Ki) α1D; cited from earlier work
# T3 sequence (P25100 1-572): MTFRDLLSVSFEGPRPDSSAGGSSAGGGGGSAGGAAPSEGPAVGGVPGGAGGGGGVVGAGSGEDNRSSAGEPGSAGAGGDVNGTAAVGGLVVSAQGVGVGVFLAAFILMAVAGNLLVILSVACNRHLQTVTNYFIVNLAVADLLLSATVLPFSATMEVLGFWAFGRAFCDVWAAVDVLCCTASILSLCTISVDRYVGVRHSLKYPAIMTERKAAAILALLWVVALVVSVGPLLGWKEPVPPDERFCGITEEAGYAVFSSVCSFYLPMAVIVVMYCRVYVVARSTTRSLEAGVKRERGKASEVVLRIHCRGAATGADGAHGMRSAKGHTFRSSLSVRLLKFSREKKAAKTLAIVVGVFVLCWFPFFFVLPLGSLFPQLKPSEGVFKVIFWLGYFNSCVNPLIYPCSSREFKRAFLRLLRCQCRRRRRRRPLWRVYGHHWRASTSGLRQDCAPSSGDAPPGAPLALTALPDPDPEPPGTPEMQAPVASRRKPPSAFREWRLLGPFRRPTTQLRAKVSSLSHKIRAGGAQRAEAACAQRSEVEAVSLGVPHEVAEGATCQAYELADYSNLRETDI
# [6] = test system: 3-dpf Zebrafish Embryos Challenged with LPS (P. aeruginosa 60 μg/mL); format: in vivo, Danio rerio; details: P. aeruginosa LPS 60 μg/mL, compound 10 μM
# How it was run: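 3-dpf PTU-treated AB zebrafish embryos exposed to 60 μg/mL P. aeruginosa LPS plus 10 μM compound (final) at 28.5 °C, n=16 per compound. Tail edema and mortality scored at 6 and 24 h post exposure; rescue judged against LPS-only controls at 24 h.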
# [7] = test system: 5-dpf zebrafish challenged with K. Pneumoniae LPS (45 μg/mL); assay: Challenge with K. Pneumoniae LPS (45 μg/mL), 5-dpf zebrafish; format: in vivo, Danio rerio
# Procedure: These tests followed the same methods described in the 5-dpf zebrafish confirmatory testing, but K. Pneumoniae LPS (45 μg/mL final in well concentration) was used instead of P. aeruginosa LPS.
# Sequence of D3 (P35462 whole entry): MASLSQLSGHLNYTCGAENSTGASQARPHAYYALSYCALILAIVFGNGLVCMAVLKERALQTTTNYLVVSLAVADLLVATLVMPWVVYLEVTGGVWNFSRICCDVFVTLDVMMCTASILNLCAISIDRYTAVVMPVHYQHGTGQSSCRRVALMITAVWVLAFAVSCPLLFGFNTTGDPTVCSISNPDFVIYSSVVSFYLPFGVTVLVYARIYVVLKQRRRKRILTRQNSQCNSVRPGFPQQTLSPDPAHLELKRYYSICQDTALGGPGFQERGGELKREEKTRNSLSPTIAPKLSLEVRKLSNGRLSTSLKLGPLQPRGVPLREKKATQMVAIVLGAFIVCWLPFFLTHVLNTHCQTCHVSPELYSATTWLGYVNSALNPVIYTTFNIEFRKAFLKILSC
# Sequence of histamine H1 receptor (P35367 whole entry, species assumed): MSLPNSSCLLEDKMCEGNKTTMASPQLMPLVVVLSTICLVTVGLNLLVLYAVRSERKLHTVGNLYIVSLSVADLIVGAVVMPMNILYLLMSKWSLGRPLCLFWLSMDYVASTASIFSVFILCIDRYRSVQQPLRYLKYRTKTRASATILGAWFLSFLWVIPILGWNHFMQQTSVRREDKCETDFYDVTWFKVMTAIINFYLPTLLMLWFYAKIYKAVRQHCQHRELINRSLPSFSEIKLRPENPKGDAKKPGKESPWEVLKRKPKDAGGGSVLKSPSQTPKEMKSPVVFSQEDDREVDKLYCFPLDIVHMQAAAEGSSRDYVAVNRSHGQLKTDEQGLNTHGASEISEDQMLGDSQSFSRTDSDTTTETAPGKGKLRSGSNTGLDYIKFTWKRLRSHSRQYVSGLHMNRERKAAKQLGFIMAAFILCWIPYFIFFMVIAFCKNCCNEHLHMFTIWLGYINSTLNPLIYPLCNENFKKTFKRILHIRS
smiles,measurement,setting,value
"O=c1ccc2ccc(OCCCCN3CCN(c4cccc5sccc45)CC3)cc2[nH]1 [Compound 45, Brexpiprazole]",Ki,[1],19 nM
same,Ki,[2],0.17 nM
same,Ki,[3],0.59 nM
same,Ki,[4],1.1 nM
same,Ki,[5],2.6 nM
same,Percent Rescue (Mort + Tail Edema),"[6]; 3-dpf embryos, 24 hours, n=16",100%
same,rescue of tail edema and mortality (sepsis rescue rate) at 3-dpf,"[6]; 3-dpf, 24 hours",100%
same,3 dpf Embryos Percent Rescue (Mort + Tail Edema),[6]; initial 3-dpf screen shown for reference,100%
same,rescue of tail edema and mortality,[7],100%
